The assay addresses T1, Recombinant human proMMP13 (collagenase 3) (Homo sapiens, UniProt P45452).
T1 construct: made in house
Description: Collagenase 3 (MMP13) enzyme inhibition assay with fluorogenic peptide substrate. It counts as biochemical. The note with it: APMA-activated MMP13, 4-5 hours at 35° C., pH 7.5, fluorescence λex 328 nm / λem 393 nm. The procedure:
Collagenase 3 (MMP13) inhibitory activity may be assessed, for example, using the procedure set out below:—
Activity is determined by measuring the fluorescence at λex 328 nm and λem 393 nm.
Usually IC50 stands for the concentration that gives 50% inhibition. Consider `CC[C@]1(CS(=O)(=O)N2CCC(Oc3ccc(OCC(F)(F)C(F)(F)F)cc3)CC2)NC(=O)NC1=O` [Example 12, (5S)-5-ethyl-5-[({4-[4-(2,2,3,3,3-pentafluoropropoxy)phenoxy]-piperidin-1-yl}sulphonyl)methyl]imidazolidine-2,4-dione], for which the IC50 is 1.9 nM.
With `CC[C@]1(CS(=O)(=O)N2CCC(Oc3ccc(OCC(F)(F)C(F)F)cc3)CC2)NC(=O)NC1=O` [Example 10, (5S)-5-ethyl-5-[({4-[4-(2,2,3,3-tetrafluoropropoxy)phenoxy]-piperidin-1-yl}sulphonyl)methyl]imidazolidine-2,4-dione], the IC50 is 0.7 nM.
Regarding `CC[C@]1(CS(=O)(=O)N2CCC(Oc3ccc(OCC(F)(F)F)cc3)CC2)NC(=O)NC1=O` [Example 2, (5S)-5-ethyl-5-[({4-[4-(2,2,2-trifluoroethoxy)phenoxy]piperidin-1-yl}sulfonyl)methyl]imidazolidine-2,4-dione], the IC50 is 8.4 nM.
Consider `CC[C@]1(CS(=O)(=O)N2CCC(Oc3ccc(OC(F)(F)C(F)(F)F)cc3)CC2)NC(=O)NC1=O` [Example 6, (5S)-5-ethyl-5-[({4-[4-(pentafluoroethoxy)phenoxy]piperidin-1-yl}sulfonyl)methyl]imidazolidine-2,4-dione], for which the IC50 was determined as 13 nM.
Turning to `CCC1(CS(=O)(=O)N2CCC(Oc3ccc(OCCC(F)(F)F)cc3)CC2)NC(=O)NC1=O` (stereo not drawn) [Example 8], the IC50 came out at 5.5 nM.
In the case of `CCC1(CS(=O)(=O)N2CCC(Oc3ccc(OC(F)(F)C(F)F)cc3)CC2)NC(=O)NC1=O` (stereo not drawn) [Example 4, 5S-ethyl-5-[({4-[4-(1,1,2,2-tetrafluoroethoxy)phenoxy]piperidin-yl}sulfonyl)methyl]imidazolidine-2,4-dione], the IC50 was 4.9 nM.

The values above are taken from patent publication US8129412B2, “Hydantoin derivatives useful as metalloproteinase inhibitors” (AstraZeneca AB, priority 2004, dated 2012).
